The source of these data is patent US20230303562A1, “PYRAZOLE COMPOUND AND PREPARATION METHOD THEREFOR AND USE THEREOF” (Sichuan Kelun-Biotech Biopharmaceutical Co., Ltd., priority 2020, published 2023).

By bioavailability is commonly meant the share of a dose that reaches the circulation, judged against a reference dose that is usually intravenous. Usually IC50 stands for the midpoint of a concentration-inhibition curve. A word on the Cmax: it is the peak of the concentration-time curve.

Data set [1] in a line: Pharmacokinetics (PK) study in Balb/c mice. It is filed as in vivo. The conditions noted are these: female Balb/c mice; for bioavailability: mouse, read-out: F (bioavailability); for bioavailability / F (bioavailability): PO 10 mg/kg compared with IV 1 mg/kg. The method, then: The example compounds were administered to female Balb/c mice via intravenous injection (IV) and gastric perfusion (PO), respectively, and their pharmacokinetic properties were investigated. The administered doses for IV and PO were 1 mg/kg and 10 mg/kg, respectively. The solvent for IV was 5% DMSO+5% Solutol (15-hydroxystearic acid polyethylene glycol ester)+90% normal saline, the solvent for PO was 0.5% MC ([…] methylcellulose). Whole blood samples were collected at various time points after IV and PO administration, and subjected to EDTA-K2 anticoagulation before test.
Whole blood samples were processed by precipitating proteins and then subjected to LC-MS/MS analysis. The pharmacokinetic parameters were calculated by the non-compartmental model using WinNonlin 6.3 software, and the results were shown in Table 6 below.

In a further data set the target is TGFβR1 (Homo sapiens (Human), UniProt P36897). The data set is described as follows: In vitro enzymatic activity inhibition test (TGFβR1), ADP-Glo Kinase Detection Kit. The format is biochemical. Particulars: estimated from inhibition at 1000, 100, 10 nM. The protocol: Experimental method: According to the instructions of ADP-Glo™ Kinase Detection Kit (Promega), the inhibitory effect of the compounds of the present invention on the enzymatic activity of TGFβR1 was determined, and the steps were as follows:
TGFβR1 enzyme were pre-incubated with different concentrations of test compounds (1000 nM, 100 nM, 10 nM) at 30° C. for 30 min, TGFβR1 peptide and adenosine triphosphate (ATP) were added to initiate the reaction. The incubation was performed at 30° C. for 3 h, followed by an addition of ADP-Glo™ reagent and incubated at room temperature for 90 min, kinase detection reagent was then added. Chemiluminescence signal values were detected after incubation at room temperature for another 30 min. Taking the solvent group (DMSO) as the negative control and the buffer group (without TGFβR1 enzyme) as the blank control, the percent inhibition rates of different concentrations of compounds were calculated according to the following formula: […]
When the percent inhibition rate was between 30% and 80%, the median inhibitory concentration (IC50) or range of the compound was calculated according to the following formula:
IC50=X×(1−percent inhibition rate (%))/percent inhibition rate (%), wherein X is the concentration of the compound at which the inhibition rate is between 30% and 80%.

The next data set addresses hERG (Homo sapiens (Human), UniProt Q12809). The data set is described as follows: Biochemical hERG inhibition test (Predictor hERG fluorescence polarization kit). It is filed as binding. The conditions noted are these: competition with Tracer, tested at 10 μM and 1 μM. The protocol: Kit: Predictor™ hERG fluorescence polarization detection kit (ThermoFisher), the kit contained the following components: positive control compound hERG potassium channel blocker E4031; hERG cell membrane; affinity tracer Tracer; and hERG buffer.
hERG concentration: 1×; Tracer concentration: 1 nM; incubation time: 2 h; BMG PHERAstar FS FP.
The test was carried out according to the kit instructions, and the steps were as follows:
Positive control group: 30 μM positive control compound E4031 was used to replace the test compound, and the experimental method was the same as that of the test group.
Blank control group: hERG buffer was used to replace the test compound without the addition of hERG cell membrane, and the experimental method was the same as that of the test group.
According to the data ratio, the percent inhibition rates (%) of the compounds of the present invention to hERG at different concentrations were calculated, and the ranges of the half inhibitory concentration (IC50) of the compounds were determined.

The target of another data set is TGFβR2 (Homo sapiens (Human), UniProt P37173). The data set is described as follows: In vitro enzymatic activity inhibition test (TGFβR2), ADP-Glo Kinase Detection Kit. Particulars: MBP substrate, estimated from inhibition at 1000, 100, 10 nM. The format is biochemical. The protocol:
The chemiluminescence signal values were detected after incubation at room temperature for another 30 min.

TGFβR2, sequence (P37173 23-567): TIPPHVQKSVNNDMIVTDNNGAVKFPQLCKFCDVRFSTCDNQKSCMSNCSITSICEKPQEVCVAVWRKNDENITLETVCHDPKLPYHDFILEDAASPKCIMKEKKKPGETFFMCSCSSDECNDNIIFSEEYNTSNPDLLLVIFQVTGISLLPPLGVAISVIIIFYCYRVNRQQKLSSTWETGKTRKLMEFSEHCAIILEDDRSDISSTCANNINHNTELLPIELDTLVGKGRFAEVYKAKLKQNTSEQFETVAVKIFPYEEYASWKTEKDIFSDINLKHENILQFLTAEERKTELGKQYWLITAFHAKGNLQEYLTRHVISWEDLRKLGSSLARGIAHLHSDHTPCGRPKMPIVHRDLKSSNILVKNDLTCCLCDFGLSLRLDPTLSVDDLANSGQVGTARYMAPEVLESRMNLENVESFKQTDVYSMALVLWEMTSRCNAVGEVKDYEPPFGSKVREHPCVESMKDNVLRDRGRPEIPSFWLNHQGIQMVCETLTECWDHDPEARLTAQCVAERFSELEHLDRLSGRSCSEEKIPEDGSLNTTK
TGFβR1, sequence (P36897 34-503): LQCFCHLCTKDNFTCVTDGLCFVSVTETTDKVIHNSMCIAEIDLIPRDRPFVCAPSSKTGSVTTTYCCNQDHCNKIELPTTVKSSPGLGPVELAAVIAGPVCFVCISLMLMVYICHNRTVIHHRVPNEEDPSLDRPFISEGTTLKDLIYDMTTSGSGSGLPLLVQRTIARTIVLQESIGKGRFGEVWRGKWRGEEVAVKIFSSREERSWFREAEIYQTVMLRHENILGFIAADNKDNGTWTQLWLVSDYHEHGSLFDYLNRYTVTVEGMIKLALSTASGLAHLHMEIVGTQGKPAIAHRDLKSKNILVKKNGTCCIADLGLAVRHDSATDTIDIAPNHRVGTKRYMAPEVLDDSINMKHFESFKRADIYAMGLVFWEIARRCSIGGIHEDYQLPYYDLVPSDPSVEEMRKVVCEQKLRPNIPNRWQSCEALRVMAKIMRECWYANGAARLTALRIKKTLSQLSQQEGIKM
hERG, sequence (Q12809 whole entry): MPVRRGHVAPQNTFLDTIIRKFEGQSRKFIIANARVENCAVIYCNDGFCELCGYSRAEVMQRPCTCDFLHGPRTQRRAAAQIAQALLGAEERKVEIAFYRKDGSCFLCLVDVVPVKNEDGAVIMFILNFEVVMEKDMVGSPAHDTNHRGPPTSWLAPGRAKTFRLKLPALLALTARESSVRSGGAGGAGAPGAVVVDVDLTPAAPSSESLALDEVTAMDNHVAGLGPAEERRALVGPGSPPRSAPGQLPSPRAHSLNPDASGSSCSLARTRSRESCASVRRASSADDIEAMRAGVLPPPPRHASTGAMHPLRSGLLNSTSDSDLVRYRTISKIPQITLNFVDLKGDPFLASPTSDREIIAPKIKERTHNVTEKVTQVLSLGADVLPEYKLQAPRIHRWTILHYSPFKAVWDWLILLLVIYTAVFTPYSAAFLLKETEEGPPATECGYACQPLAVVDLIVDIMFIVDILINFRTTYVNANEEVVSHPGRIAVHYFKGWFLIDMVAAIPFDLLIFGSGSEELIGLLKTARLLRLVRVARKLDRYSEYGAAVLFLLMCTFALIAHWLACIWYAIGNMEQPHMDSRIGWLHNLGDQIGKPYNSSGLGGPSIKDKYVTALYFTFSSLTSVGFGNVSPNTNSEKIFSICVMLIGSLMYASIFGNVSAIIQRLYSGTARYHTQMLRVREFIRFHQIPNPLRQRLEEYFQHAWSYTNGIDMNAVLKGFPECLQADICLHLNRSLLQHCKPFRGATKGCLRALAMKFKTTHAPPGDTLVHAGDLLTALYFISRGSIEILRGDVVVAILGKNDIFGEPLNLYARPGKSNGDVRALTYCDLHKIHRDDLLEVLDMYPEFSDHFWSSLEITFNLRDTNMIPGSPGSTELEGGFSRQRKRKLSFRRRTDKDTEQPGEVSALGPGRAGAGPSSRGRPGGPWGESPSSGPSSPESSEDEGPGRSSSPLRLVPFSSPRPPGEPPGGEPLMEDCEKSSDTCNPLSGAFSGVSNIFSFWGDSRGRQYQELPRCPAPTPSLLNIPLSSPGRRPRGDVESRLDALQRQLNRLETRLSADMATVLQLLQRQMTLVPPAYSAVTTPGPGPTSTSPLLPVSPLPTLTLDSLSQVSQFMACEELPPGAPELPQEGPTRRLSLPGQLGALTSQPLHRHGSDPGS

`Cc1cccc(-n2nccc2-c2ccn3ncc(C(N)=O)c3c2)n1` [Example 12, 5-(1-(6-methylpyridin-2-yl)-1H-pyrazol-5-yl)pyrazolo[1,5-a]pyridine-3-carboxamide] had a T1/2 in data set [1] (PO, 10 mg/kg, whole blood) of 31.2 ± 10.8 min. The bioavailability in data set [1] (whole blood) was found to be 52.1%.

As for `Cc1cccc(-n2nccc2-c2ccc3ncsc3c2)n1` [Example 1, 6-(1-(6-methylpyridin-2-yl)-1H-pyrazol-5-yl)benzo[d]thiazole], the IC50 is 48.6 ± 18.6 nM on TGFβR1, above 10 µM on hERG and above 1000 nM on TGFβR2.

For the compound `Cc1cccc(-n2nc3c(c2-c2ccn4ncc(C(N)=O)c4c2)CCC3)n1` [Example 6, 5-[2-(6-methylpyridin-2-yl)-2,4,5,6-tetrahydrocyclopenteno[c]pyrazol-3-yl]pyrazolo[1,5-a]pyridine-3-carboxamide], the AUClast is 578 ± 4 ng·h/mL in data set [1] (IV, 1 mg/kg, whole blood) and 3586 ± 563 ng·h/mL in data set [1] (PO, 10 mg/kg, whole blood). The Cl in data set [1] (IV, 1 mg/kg, whole blood) worked out at 28.4 ± 0.3 mL/min/kg. Moreover, the Cmax is recorded as 1163 ± 58 ng/mL in data set [1] (IV, 1 mg/kg, whole blood) and 7440 ± 226 ng/mL in data set [1] (PO, 10 mg/kg, whole blood). Moreover, the results for the “F (bioavailability)” value in data set [1] and in data set [1] (listed as Example VI) were 61.4 ± 9.5% and 61.4%, respectively. Further, the T1/2 was found to be 27.6 ± 11.4 min in data set [1] (PO, 10 mg/kg, whole blood) and 27.6 min in data set [1] (PO, 10 mg/kg, whole blood, listed as Example VI).

In data set [1] (PO, 10 mg/kg, whole blood), `CNc1cc(-c2ccn3ncc(C(N)=O)c3c2)n(-c2cccc(C)n2)n1` [Example 8, 5-(3-(methylamino)-1-(6-methylpyridin-2-yl)-1H-pyrazol-5-yl)pyrazolo[1,5-a]pyridine-3-carboxamide] showed a T1/2 of 108 ± 21 min. For the same compound, in data set [1] (whole blood), the bioavailability is 98.1%.
